Assay results as given in patent US20170246130A1, “4-HYDROXYBENZOHYDARZIDE-A NEW CLASS OF ANGIOGENIC ENZYME THYMIDINE PHOSPHORYLASE INHIBITORS” (priority 2016, published 2017).
Entries after “also recorded” stand apart in the source; their conditions may differ. Read-outs that look alike come from different tables or passages of the source.

Key:
[1] = molecular target: T1, thymidine phosphorylase (E. coli) (Escherichia coli, UniProt P07650); assay: In-vitro thymidine phosphorylase inhibition assay (spectrophotometric); type: biochemical; conditions: recombinant E. coli TP, thymidine substrate, pH 7.0, 30° C., 290 nm; for IC50: read-out: IC50 (μM ± S.E.M.), thymidine phosphorylase inhibition
T1 construct: purchased Sigma Aldrich, USA; host or cells: Escherichia coli
T1 sequence (P07650 whole entry): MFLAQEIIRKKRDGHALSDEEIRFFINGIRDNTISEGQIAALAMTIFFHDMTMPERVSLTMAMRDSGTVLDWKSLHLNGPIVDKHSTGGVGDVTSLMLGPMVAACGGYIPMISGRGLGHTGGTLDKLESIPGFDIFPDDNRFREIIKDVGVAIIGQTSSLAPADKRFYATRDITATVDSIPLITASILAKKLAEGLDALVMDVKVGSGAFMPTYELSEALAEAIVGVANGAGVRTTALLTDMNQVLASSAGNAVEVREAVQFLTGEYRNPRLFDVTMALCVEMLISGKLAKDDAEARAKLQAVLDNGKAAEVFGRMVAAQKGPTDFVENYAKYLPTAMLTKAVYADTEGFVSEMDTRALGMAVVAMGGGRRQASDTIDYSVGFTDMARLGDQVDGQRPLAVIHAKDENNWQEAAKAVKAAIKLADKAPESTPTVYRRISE
Description: In vitro studies on thymidine phosphorylase were carried out in 96-well microtiter plate using Spectra Max-340 and Spectra Max-384 spectrophotometers (Molecular Devices, CA, USA). Deionized water used for buffer preparation was collected by Simplicity Water Purification System (Milipore).
Since human TP is not commercially available, we used commercially available recombinant E. coli TP (expressed in Escherichia coli) enzyme. Primary sequence of TP is mostly conserved throughout the evolution as mammalian TP share 39% sequence similarity with TP of E. coli. The mammalian enzyme also shared 65-70% similarity with the active site residues of E. coli TP enzyme (Bronckaers et al., 2009). Assay for thymidine phosphorylase inhibition was performed spectrophotometrically, following method of Bera et al. with some modifications (Bera et al., 2013).
The reaction catalyzed by thymidine phosphorylase involves reversible phosphorolysis of thymidine (FIG. 1), to thymine and 2-deoxyribose-1-phosphate (Bronckaers et al., 2009).
Reaction mixture contained 150 μL of potassium phosphate buffer (pH 7.0, 50 mM), 20 µL of enzyme (0.058 U/well) and 10 μL of test compound (0.5 mM in dimethylsulfoxide). The reaction mixture was incubated for 10 min at 30° C.
The enzyme inhibitory activities were calculated using the following formula:
Percent Inhibition=100−(O.D. of test/O.D. of control)×100
Where test is the enzyme activity with sample, and control is the enzyme activity without sample, and O.D. is optical density.
The IC50 of the compounds was calculated using EZ-Fit Enzyme Kinetic Program (Perrella Scientific Inc., Amhrest, U.S.A.).

[2] = system: mouse fibroblast cell line (3T3); assay: MTT anti-proliferative assay, 3T3 cells; type: cell-based; conditions: for inhibition of the proliferation of 3T3 cells (in words): in comparison to cyclohexamide; for IC50 ± SD (μM), 3T3 Cell Line / IC50: 3T3 cells; for IC50: read-out: IC50 ± SD (μM), 3T3 Cell Line
Description: (§1) Compounds found to be active in inhibiting thymidine phosphorylase were then subjected to MTT proliferation assay. Rapid proliferation is the property inherent to cancerous/tumor cells. This assay was carried out to study the effect of these compounds on proliferation of various cell lines. The cell lines which we targeted were mouse fibroblast cell line (3T3), and prostate cancer line (PC3).
(§2) Anti-proliferative activity of active compounds was evaluated by using the standard MTT (3-[4,5-dimethylthiazole-2-yl]-2,5-diphenyl-tetrazolium bromide) colorimetric assay in 96-well plate (Dimas et al., 1998).
(§3) It is a colorimetric assay that measures the reduction of MTT, by mitochondrial enzyme i.e. succinate dehydrogenase. The MTT enters into the mitochondria of cell, where it is reduced to an insoluble formazan salt (FIG. 8). The extent of MTT reduction was measured at 540 nm. As reduction of MTT can only occur in metabolically active cells, the level of activity is actually a measure of the viability of the cells (Vega-Avila and Pugsley, 2011).
(§4) Mouse fibroblast cell line 3T3 was cultured in DMEM, supplemented with 5% of FBS, 100 IU/mL of penicillin and 100 μg/mL of streptomycin, and kept at 37° C. in 5% CO2 incubator. For the preparation of cell culture, 100 μL/well of cell solution (5×10^4 cells/mL) was added into 96-well plate. The plate was incubated for overnight, and fresh medium was added after the removal of old medium. The test compounds were also added in different concentrations into the plate and plate was again incubated for 48 h. After the completion of this incubation period, 200 μL MTT (0.5 mg/mL) was added and plate was again incubated for 4 h, after this final incubation 100 μL of DMSO was added to each well. The level of MTT reduction to formazan was evaluated by change in absorbance at 540 nm using a micro plate reader (Spectra Max plus, Molecular Devices, CA, USA).

[3] = system: prostate cancer line (PC3); assay: MTT anti-proliferative assay, PC3 cells; type: cell-based; conditions: for IC50: read-out: IC50 ± SD (μM), PC3 Cell Line; for inhibition of the proliferation of PC3 cancer cells (in words): in comparison of doxorubucin
Description: as §1, §2, §3, §4

Row | Compound | IC50 [1] | IC50 (μM ± S.E.M.), thymidine phosphorylase inhibition [1] | IC50 ± SD (μM), PC3 Cell Line ([3]; PC3 cells) | further results
1 | COc1ccc(O)c(/C=N/NC(=O)c2ccc(O)cc2)c1 [Compound 20, 4-Hydroxy-N′-[(E)-(2-hydroxy-5-methoxyphenyl)methylidene]benzohydrazide] | 172 ± 2.7 µM | – | – | inhibition of the proliferation of 3T3 cells (in words) [2]: significantly inhibit; IC50 ([3]; Homo sapiens, PC-3, PC3 cells): 10.5 ± 0.551 µM; inhibition of the proliferation of PC3 cancer cells (in words) [3]: significantly inhibit
2 | O=C(N/N=C/c1c(O)cc(O)cc1O)c1ccc(O)cc1 [Compound 7, 4-Hydroxy-N′-[(E)-(2,4,6-trihydroxyphenyl)methylidene]benzohydrazide] | – | Inactive | – | –
3 | O=C(N/N=C/c1ccc(O)cc1)c1ccc(O)cc1 [Compound 3, 4-Hydroxy-N′-[(E)-(4-hydroxyphenyl)methylidene]benzohydrazide] | 199.4 ± 0.4 µM | – | Inactive | IC50 ± SD (μM), 3T3 Cell Line ([2]; 48 h): Inactive
4 | O=C(N/N=C/c1cc(Br)ccc1O)c1ccc(O)cc1 [Compound 22, 4-Hydroxy-N′-[(E)-(5-bromo-2-hydroxyphenyl)methylidene]benzohydrazide] | – | Inactive | – | –
5 | COc1ccc(/C=N/NC(=O)c2ccc(O)cc2)cc1 [Compound 10, 4-Hydroxy-N′-[(E)-(4-methoxyphenyl)methylidene]benzohydrazide] | 186 ± 2 µM | – | Inactive | IC50 ± SD (μM), 3T3 Cell Line ([2]; 48 h): Inactive
6 | C[C@@H]1C[C@@H]([C@H](O)CC2CC(=O)NC(=O)C2)C(=O)[C@@H](C)C1 [Cyclohexamide, reference compound] | – | – | – | IC50 ([2]; 48 h): 0.26 ± 0.1 µM
7 | CCOc1cccc(/C=N/NC(=O)c2ccc(O)cc2)c1O [Compound 21, 4-Hydroxy-N′-[(E)-(3-ethoxy-2-hydroxyphenyl)methylidene]benzohydrazide] | 190.3 ± 0.4 µM | – | – | inhibition of the proliferation of 3T3 cells (in words) [2]: significantly inhibit; IC50 ([3]; Homo sapiens, PC-3, PC3 cells): 6.54 ± 0.278 µM; inhibition of the proliferation of PC3 cancer cells (in words) [3]: significantly inhibit
8 | O=C(N/N=C/c1cccc(O)c1O)c1ccc(O)cc1 [Compound 4, 4-Hydroxy-N′-[(E)-(2,3-dihydroxyphenyl)methylidene]benzohydrazide] | 170.6 ± 0.5 µM | – | – | inhibition of the proliferation of 3T3 cells (in words) [2]: significantly inhibit; IC50 ([3]; Homo sapiens, PC-3, PC3 cells): 7.61 ± 0.49 µM; inhibition of the proliferation of PC3 cancer cells (in words) [3]: significantly inhibit
9 | Cc1ccccc1/C=N/NC(=O)c1ccc(O)cc1 [Compound 16, 4-Hydroxy-N′-[(E)-(2-methylphenyl)methylidene]benzohydrazide] | 177.2 ± 0.5 µM | – | Inactive | IC50 ± SD (μM), 3T3 Cell Line ([2]; 48 h): Inactive
10 | O=C(N/N=C/c1ccc(Cl)cc1Cl)c1ccc(O)cc1 [Compound 15, 4-Hydroxy-N′-[(E)-(2,4-dichlorophenyl)methylidene]benzohydrazide] | – | Inactive | – | –
11 | C/C(=N\NC(=O)c1ccc(O)cc1)c1cc(O)ccc1O [Compound 28, 4-Hydroxy-N′-[(E)-1-(2,5-dihydroxyphenyl)ethylidene]benzohydrazide] | 183.4 ± 0.9 µM | – | Inactive | inhibition of the proliferation of 3T3 cells (in words) [2]: significantly inhibit
12 | O=C(N/N=C/c1cc(O)c(O)cc1O)c1ccc(O)cc1 [Compound 6, 4-Hydroxy-N′-[(E)-(2,4,5-trihydroxyphenyl)methylidene]benzohydrazide] | 208 ± 0.9 µM | – | Inactive | inhibition of the proliferation of 3T3 cells (in words) [2]: significantly inhibit
13 | O=C(N/N=C/c1ccccc1O)c1ccc(O)cc1 [Compound 1, 4-Hydroxy-N′-[(E)-(2-hydroxyphenyl)methylidene]benzohydrazide] | 189.1 ± 0.1 µM | – | – | inhibition of the proliferation of 3T3 cells (in words) [2]: significantly inhibit; IC50 ([3]; Homo sapiens, PC-3, PC3 cells): 7.58 ± 0.462 µM; inhibition of the proliferation of PC3 cancer cells (in words) [3]: significantly inhibit
14 | COc1cccc2c1C(=O)c1c(O)c3c(c(O)c1C2=O)C[C@@](O)(C(=O)CO)C[C@@H]3O[C@H]1C[C@H](N)[C@H](O)[C@H](C)O1 [Doxorubucin, reference compound] | – | – | – | IC50 ([3]; PC3 cells): 0.91 ± 0.1 µM
15 | O=C(N/N=C/c1cccc(O)c1)c1ccc(O)cc1 [Compound 2, 4-Hydroxy-N′-[(E)-(3-hydroxyphenyl)methylidene]benzohydrazide] | 180 ± 3 µM | – | Inactive | IC50 ± SD (μM), 3T3 Cell Line ([2]; 48 h): Inactive
16 | O=C(N/N=C/c1ccc(O)c(O)c1O)c1ccc(O)cc1 [Compound 8, 4-Hydroxy-N′-[(E)-(2,3,4-trihydroxyphenyl)methylidene]benzohydrazide] | – | Inactive | – | –
17 | C/C(=N\NC(=O)c1ccc(O)cc1)c1ccccc1O [Compound 25, 4-Hydroxy-N′-[(E)-1-(2-Hydroxyphenyl)ethylidene]benzohydrazide] | – | Inactive | – | –
18 | COc1ccc(/C=N/NC(=O)c2ccc(O)cc2)cc1OC [Compound 11, 4-Hydroxy-N′-[(E)-(3,4-dimethoxyphenyl)methylidene]benzohydrazide] | 204 ± 3 µM | – | Inactive | IC50 ± SD (μM), 3T3 Cell Line ([2]; 48 h): Inactive
19 | C/C(=N\NC(=O)c1ccc(O)cc1)c1ccc(O)cc1O [Compound 26, 4-Hydroxy-N′-[(E)-1-(2,4-dihydroxyphenyl)ethylidene]benzohydrazide] | – | Inactive | – | –
20 | O=C(N/N=C/c1cccc(Cl)c1)c1ccc(O)cc1 [Compound 13, 4-Hydroxy-N′-[(E)-(3-chlorophenyl)methylidene]benzohydrazide] | 160.3 ± 1 µM | – | Inactive | IC50 ± SD (μM), 3T3 Cell Line ([2]; 48 h): Inactive
21 | COc1ccccc1/C=N/NC(=O)c1ccc(O)cc1 [Compound 9, 4-Hydroxy-N′-[(E)-(2-methoxyphenyl)methylidene]benzohydrazide] | 183.7 ± 1.5 µM | – | Inactive | IC50 ± SD (μM), 3T3 Cell Line ([2]; 48 h): Inactive
22 | CN(C)c1ccc(/C=N/NC(=O)c2ccc(O)cc2)cc1 [Compound 17, 4-Hydroxy-N′-[(E)-[4-dimethylaminophenyl]methylidene]benzohydrazide] | – | unable to inhibit the enzyme; also recorded: Inactive | – | –
23 | O=C(N/N=C/c1cc(Cl)ccc1O)c1ccc(O)cc1 [Compound 23, 4-Hydroxy-N′-[(E)-(5-chloro-2-hydroxyphenyl)methylidene]benzohydrazide] | – | Inactive | – | –
24 | COc1cccc(/C(C)=N/NC(=O)c2ccc(O)cc2)c1O [Compound 29, 4-Hydroxy-N′-[(E)-1-(2-hydroxy-3-methoxyphenyl)ethylidene]benzohydrazide] | 174.2 ± 1 µM | – | – | IC50 ([2]; Mus musculus, NIH3T3, 48 h): 18.6 ± 0.6 µM; inhibition of the proliferation of 3T3 cells (in words) [2]: significantly inhibit; IC50 ([3]; Homo sapiens, PC-3, PC3 cells): 8.48 ± 0.592 µM; inhibition of the proliferation of PC3 cancer cells (in words) [3]: significantly inhibit
25 | CSc1ccc(/C=N/NC(=O)c2ccc(O)cc2)cc1 [Compound 18] | – | unable to inhibit the enzyme; also recorded: Inactive | – | –
